Test results from ChEMBL document CHEMBL1201862, “PubChem BioAssay data set” (2004).
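Each compound was tested at five concentrations against cells in 96-well plates for 48 hours. Abbreviation: GI50, concentration required for 50% inhibition of growth.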 Active and inactive are the calls of the source. Rule as the data show it: active = GI50 up to about 1.1 µM and inactive = higher.

Legend:
Assay in all cases: growth of human tumour cells (NCI), 48 h
HCC 2998 = test system: HCC 2998
HOP-62 = test system: HOP-62
HOP-92 = test system: HOP-92
HT-29 = test system: HT-29
Hs-578T = test system: Hs-578T
IGROV-1 = test system: IGROV-1
MOLT-4 = test system: MOLT-4
NCI/ADR-RES = test system: NCI/ADR-RES
OVCAR-3 = test system: OVCAR-3
OVCAR-4 = test system: OVCAR-4
RXF 393 = test system: RXF 393
SF-268 = test system: SF-268
SF-295 = test system: SF-295
SK-MEL-5 = test system: SK-MEL-5
SNB-19 = test system: SNB-19
T47D = test system: T47D
U-251 = test system: U-251
EKVX = test system: EKVX
Malme-3M = test system: Malme-3M
NCI-H522 = test system: NCI-H522

Compound | GI50 (HCC 2998) | GI50 (HOP-62) | GI50 (HOP-92) | GI50 (HT-29) | GI50 (Hs-578T) | GI50 (IGROV-1) | GI50 (MOLT-4) | GI50 (NCI/ADR-RES) | GI50 (OVCAR-3) | GI50 (OVCAR-4) | GI50 (RXF 393) | GI50 (SF-268) | GI50 (SF-295) | GI50 (SK-MEL-5) | GI50 (SNB-19) | GI50 (T47D) | GI50 (U-251) | GI50 (EKVX) | GI50 (Malme-3M) | GI50 (NCI-H522)
CCOC(=O)c1ccc2c(c1)nc1n2C(c2c(F)cccc2F)SC1 (stereo not drawn) | 35.8 µM (inactive) | 31.9 µM (inactive) | 40.6 µM (inactive) | 19 µM (inactive) | 26.2 µM (inactive) | 0.951 µM (active) | 26.8 µM (inactive) | 18.8 µM (inactive) | 17.8 µM (inactive) | 46.6 µM (inactive) | 51.6 µM (inactive) | 32.8 µM (inactive) | 21.5 µM (inactive) | 13.1 µM (inactive) | 12.2 µM (inactive) | 12.8 µM (inactive) | 55.6 µM (inactive) |  |  | 
C/C(=N\NC(=S)N1CCN(C)CC1)c1nc2cccnc2[nH]1 | > 100 µM (inactive) | > 100 µM (inactive) | > 100 µM (inactive) | > 100 µM (inactive) | > 100 µM (inactive) | > 100 µM (inactive) | > 100 µM (inactive) | > 100 µM (inactive) | > 100 µM (inactive) | > 100 µM (inactive) |  | > 100 µM (inactive) | > 100 µM (inactive) | > 100 µM (inactive) | > 100 µM (inactive) | 52.1 µM (inactive) | > 100 µM (inactive) | > 100 µM (inactive) | > 100 µM (inactive) | > 100 µM (inactive)
Cc1cc2nc(CC(C(F)(F)F)C(F)(F)F)oc2cc1C | 3.56 µM (inactive) | 3.48 µM (inactive) | 7.5 µM (inactive) | 0.973 µM (active) | 1.83 µM (inactive) | 1.97 µM (inactive) |  | 1.71 µM (inactive) | 2.65 µM (inactive) | 2.19 µM (inactive) | 2.51 µM (inactive) | 2.49 µM (inactive) | 4.76 µM (inactive) | 4.32 µM (inactive) | 5.09 µM (inactive) | 0.308 µM (active) | 3.15 µM (inactive) | 2.24 µM (inactive) | 3.34 µM (inactive) | 0.184 µM (active)
Nc1ccc(/C=C/c2ccc3cccnc3c2)cc1 | > 100 µM (inactive) | > 100 µM (inactive) | > 100 µM (inactive) | > 100 µM (inactive) | > 100 µM (inactive) |  | > 100 µM (inactive) | > 100 µM (inactive) | > 100 µM (inactive) |  | > 100 µM (inactive) | > 100 µM (inactive) | > 100 µM (inactive) | > 100 µM (inactive) | > 100 µM (inactive) | 92.9 µM (inactive) | > 100 µM (inactive) | > 100 µM (inactive) | > 100 µM (inactive) | 
O=C1CC(=O)NC(NN2C(=O)/C(=C/C(=O)c3ccco3)N=C2c2ccccc2)=N1 | > 100 µM (inactive) | > 100 µM (inactive) | 24.8 µM (inactive) | > 100 µM (inactive) | 27.7 µM (inactive) | 43.3 µM (inactive) | 22.9 µM (inactive) | 41.1 µM (inactive) | 42.4 µM (inactive) | 31 µM (inactive) | 66.8 µM (inactive) | > 100 µM (inactive) | 94.2 µM (inactive) |  |  | 70.1 µM (inactive) | 47.5 µM (inactive) |  | 7 µM (inactive) | 17.7 µM (inactive)
Cc1cc2c(=O)[nH]nc(N)c2c(N)n1 | > 100 µM (inactive) | > 100 µM (inactive) | > 100 µM (inactive) | > 100 µM (inactive) | > 100 µM (inactive) | > 100 µM (inactive) | > 100 µM (inactive) | > 100 µM (inactive) |  | > 100 µM (inactive) | > 100 µM (inactive) | > 100 µM (inactive) | > 100 µM (inactive) | > 100 µM (inactive) | > 100 µM (inactive) | > 100 µM (inactive) | > 100 µM (inactive) | > 100 µM (inactive) | > 100 µM (inactive) | > 100 µM (inactive)
CCOC(=O)c1ccc2c(c1)Cc1cc([N+](=O)[O-])ccc1-2 |  | > 100 µM (inactive) | 26.1 µM (inactive) | 27.1 µM (inactive) | 48.9 µM (inactive) | 10.6 µM (inactive) | 20.1 µM (inactive) | 25.1 µM (inactive) | 46.6 µM (inactive) | 15.7 µM (inactive) | 22.9 µM (inactive) | 24 µM (inactive) | 23.1 µM (inactive) | 17.3 µM (inactive) | > 100 µM (inactive) | 87.1 µM (inactive) | 39.4 µM (inactive) | 12.3 µM (inactive) | > 100 µM (inactive) | 
COC(=O)Nc1nc2cc(S(=O)(=O)n3nnc4ccccc43)ccc2[nH]1 |  | 15.8 µM (inactive) | 14.5 µM (inactive) | > 100 µM (inactive) | 21.3 µM (inactive) | 31.3 µM (inactive) | > 100 µM (inactive) | > 100 µM (inactive) | > 100 µM (inactive) | > 100 µM (inactive) | 14.6 µM (inactive) | 21.5 µM (inactive) | 21.4 µM (inactive) | > 100 µM (inactive) | 29.9 µM (inactive) | 37.8 µM (inactive) | 26.6 µM (inactive) | > 100 µM (inactive) | 30.5 µM (inactive) | 36.8 µM (inactive)
O=C(Nc1ccccc1C(=O)O)C(=Cc1ccccc1O)NC(=O)c1ccccc1 | > 100 µM (inactive) | > 100 µM (inactive) | > 100 µM (inactive) | > 100 µM (inactive) | > 100 µM (inactive) | > 100 µM (inactive) | > 100 µM (inactive) | > 100 µM (inactive) | > 100 µM (inactive) |  | > 100 µM (inactive) | > 100 µM (inactive) | > 100 µM (inactive) | > 100 µM (inactive) | > 100 µM (inactive) | 49.1 µM (inactive) | > 100 µM (inactive) | > 100 µM (inactive) | > 100 µM (inactive) | > 100 µM (inactive)
COc1ccc(C(=O)/C=C/c2ccncc2)cc1OC |  | 16.3 µM (inactive) | 14.1 µM (inactive) | 8.93 µM (inactive) | 13.7 µM (inactive) | 12.9 µM (inactive) | 8.32 µM (inactive) | 19.7 µM (inactive) | 6.27 µM (inactive) | 11 µM (inactive) | 12.6 µM (inactive) | 13.7 µM (inactive) | 16.1 µM (inactive) | 16.4 µM (inactive) | 18.5 µM (inactive) | 12.6 µM (inactive) | 11.2 µM (inactive) | 16.7 µM (inactive) | 18.3 µM (inactive) | 7.73 µM (inactive)
Cc1cc(S(=O)(=O)n2ccnc2Oc2cccc(Cl)c2)c(SSc2cc(Cl)c(C)cc2S(=O)(=O)n2ccnc2Oc2cccc(Cl)c2)cc1Cl | 20.7 µM (inactive) | 9.57 µM (inactive) | 4.39 µM (inactive) | 7.83 µM (inactive) | 4.19 µM (inactive) | 8.13 µM (inactive) | 4.14 µM (inactive) | 3.1 µM (inactive) | 8.02 µM (inactive) | 9.57 µM (inactive) | 3.08 µM (inactive) | 7.43 µM (inactive) | 4.19 µM (inactive) | 3.42 µM (inactive) |  | 2.98 µM (inactive) | 3.18 µM (inactive) | 4 µM (inactive) | 5.74 µM (inactive) | 
O=C1N[C@@H]2c3c(csc3Br)C(=O)[C@@H]2O1 | 17.9 µM (inactive) | 53.2 µM (inactive) | 20.8 µM (inactive) | 38.5 µM (inactive) | 31 µM (inactive) | 26.5 µM (inactive) | 19.9 µM (inactive) | 96.4 µM (inactive) | 20.7 µM (inactive) |  | 15.5 µM (inactive) | 27 µM (inactive) | 59.2 µM (inactive) | > 100 µM (inactive) | 94 µM (inactive) | 28.8 µM (inactive) | 24.2 µM (inactive) | 30.4 µM (inactive) | 32 µM (inactive) | 30.1 µM (inactive)
O=C1Oc2ccccc2C(=O)/C1=C/NC(=S)NCCc1ccccc1 | 43.2 µM (inactive) | 51.8 µM (inactive) | 23.7 µM (inactive) | 68.1 µM (inactive) | 36.6 µM (inactive) | 27 µM (inactive) | 57.1 µM (inactive) | 38.7 µM (inactive) | 67.1 µM (inactive) | 34.9 µM (inactive) | 39.8 µM (inactive) | 77.1 µM (inactive) | 38.5 µM (inactive) | 45.7 µM (inactive) | 37.7 µM (inactive) | 35.1 µM (inactive) | 53.6 µM (inactive) | 63.7 µM (inactive) |  | 23.3 µM (inactive)
CCOC(=O)c1cnc(-n2[nH]c(C)c(CCO)c2=O)[nH]c1=O | > 100 µM (inactive) | > 100 µM (inactive) | > 100 µM (inactive) | > 100 µM (inactive) | > 100 µM (inactive) | > 100 µM (inactive) | > 100 µM (inactive) | > 100 µM (inactive) | > 100 µM (inactive) | > 100 µM (inactive) | > 100 µM (inactive) | > 100 µM (inactive) | > 100 µM (inactive) | > 100 µM (inactive) | > 100 µM (inactive) | > 100 µM (inactive) | > 100 µM (inactive) | > 100 µM (inactive) | > 100 µM (inactive) | 
CCOC(=O)N1CCC(=C2c3ccc(Cl)cc3CCc3cccnc32)CC1 [LORATADINE] | 10 µM (inactive) | 15.2 µM (inactive) | 10 µM (inactive) | 3.18 µM (inactive) | 26.9 µM (inactive) | 1.79 µM (inactive) | 4.23 µM (inactive) | 6.56 µM (inactive) | 7.78 µM (inactive) | 3.69 µM (inactive) | 6.71 µM (inactive) |  |  | 2.08 µM (inactive) |  | 13.3 µM (inactive) |  | 13.9 µM (inactive) | 5.94 µM (inactive) | 
